Values quoted from earlier work in patent US20210290592A1, “COMPOSITION AND METHOD FOR OPIOID SPARING” (Zelira Therapeutics Operations Pty Ltd., priority 2018, published 2021).

Settings: treatment group, 5 mg THC, n=105; 74 mg in control group, difference not statistically significant

## CCCCCc1cc(O)c2c(c1)OC(C)(C)[C@@H]1CCC(C)=C[C@@H]21 [dronabinol]
  Median dose of micro-opioid agonist piritramide in the two days post surgery: 54 mg
